Measurements published in patent US7790762B2, “Compounds and methods for thiol-containing compound efflux and cancer treatment” (National Jewish Health, priority 2002, dated 2010).
Read-outs that look alike come from different tables or passages of the source.

Tests used:
A549 cells [1] = test: Intracellular GSH levels by HPLC-EC in A549 cells; format: cell-based, human; details: for activity at 75 µM / activity at 50 µM / activity at 25 µM: Homo sapiens; for activity at 50 µM: A549, 50 μM
Method: (§1) Cell lines and culture conditions. Human lung epithelial cancer (A549), human leukemia HL-60 and human prostate (PC-3) tumor cells were purchased from ATCC (Manassas, Va.). A549 and PC-3 cells were grown in Ham's F12 medium (F12) and Kaighn's modification of Ham's F12 medium (F12K) with 2 mM L-glutamine (ATCC), respectively, supplemented with 10% fetal bovine serum (FBS) and 5% pen/strep (10,000 unit, Cellgro). HL-60 cells were grown in Iscove's modified Dulbecco's medium with 4 mM L-glutamine (ATCC) supplemented with 20% FBS and 5% pen/strep. Cell were grown in T-75 flask at 37° C. and 5% CO2 air atmosphere and in 24-well plates for GSH levels and LDH release measurements.
(§2) Intracellular levels of GSH. Intracellular GSH levels can be determined by HPLC-EC. Cultured cells from 24-well plates were washed once with 1 ml of PBS and then re-suspended in 0.5 ml of distilled water with 40 μM of digitonin (2 mM stock solution in DMSO) for 30 min at room temperature. Then, 50 μl of 10% meta-phosphoric acid were added (1% final concentration), the samples were sonicated for 2 min, centrifuged at 20,000 g for 10 min, and 0.2 ml of supernatant placed in vials for HPLC analysis. […] The flow rate was […]. The retention time for GSH in these conditions was 7.5 min. The HPLC instrument was from ESA, Inc. (Chelmsford, Mass.), equipped with an autosampler (model 540) and a Coul array detector (model 5600A). The potential applied was +0.75 V vs. H/Pd electrode, and the injection volume 5 μl.

HL-60 cells [2] = test: Intracellular GSH levels by HPLC-EC in HL-60 cells; format: cell-based, human; details: for effect on intracellular GSH (words): HL-60 cells
Method: as §1, §2

PC-3 cells [3] = test: Intracellular GSH levels by HPLC-EC in PC-3 cells; format: cell-based, human; details: 24 hours treatment; for activity at 25 µM / activity at 50 µM: Homo sapiens, read-out: Int. GSH % con.
Method: as §1, §2

A549 cells [4] = test: Cytotoxicity as LDH release in A549 cells; format: cell-based, human; details: 48 hours treatment; for LDH release, % of control at 75 µM / LDH release, % of control at 50 µM: Homo sapiens, read-out: LDH rel. % con.; for LDH release, % of control at 75 µM / LDH rel. % con.: A549, 75 μM; for LDH release, % of control at 50 µM: A549, 50 μM
Method: as §1
(§3) Assessment of cytotoxicity. In one exemplary method, membrane integrity of A549, HL-60 and PC-3 cells was used as an index of drug-induced cytotoxicity, and was assessed by monitoring the release of cytosolic lactate dehydrogenase (LDH). LDH activity was measured in the culture medium and cell lysates (50 mM HEPES, Triton X-100 0.5%, pH 7) using a plate reader format as previously described (41). Briefly, 5 μl of cell culture supernatant and lysates were incubated with 0.24 mM NADH in a Tris/NaCl pH 7.2 buffer in 96-well plates for 5 min at 25° C. The reaction was started by the addition of 9.8 mM pyruvate and the consumption of NADH followed at 340 nm for 5 min at 30° C. Percent LDH release was calculated by the following: (supernatant LDH/supernatant LDH+lysate LDH)×100.

HL-60 cells [5] = test: Cytotoxicity as LDH release in HL-60 cells; format: cell-based, human; details: for LDH release, % of control at 50 µM / LDH release, % of control at 25 µM: Homo sapiens, read-out: LDH rel. % con.; for LDH release, % of control at 50 µM / LDH rel. % con. / LDH release, % of control at 25 µM: 48 hours treatment
Method: as §1, §3

PC-3 cells [6] = test: Cytotoxicity as LDH release in PC-3 cells; format: cell-based, human; details: PC-3, 50 μM, 48 hours treatment; for LDH release, % of control at 50 µM: Homo sapiens, read-out: LDH rel. % con.
Method: as §1, §3

epithelial cells = test: Effects of compounds on extracellular GSH transport (Table 3); format: cell-based; details: Epithelial cell, read-out: % Increase Over Control (extracellular GSH)
[7] = A549, 75 μM, 24 hours treatment, read-out: Int. GSH % con.
[8] = Homo sapiens, HL-60, 25 μM, 24 hours treatment, read-out: Int. GSH % con.
[9] = A549, 25 μM, 24 hours treatment
[10] = Homo sapiens, HL-60, 75 μM, 24 hours treatment, read-out: Int. GSH % con.
[11] = HL-60, 75 μM, 24 hours treatment
[12] = 24 hours treatment, read-out: Int. GSH % con.

Structure (SMILES): Oc1ccc(C=Cc2cc(O)cc(O)c2)cc1 [Resveratrol]
- activity at 75 µM (A549 cells [1]; [7]): 64%
- effect on intracellular GSH (words) (HL-60 cells [2]): found effective in HL-60 cells
- activity at 25 µM (HL-60 cells [2]; [8]): 61%
- activity at 25 µM (PC-3 cells [3]; PC-3, 25 μM): 108%
- LDH release, % of control at 75 µM (A549 cells [4]): 249%
- LDH release, % of control at 50 µM (HL-60 cells [5]; HL-60, 50 μM): 143%
- LDH release, % of control at 50 µM (PC-3 cells [6]): 135%

Structure (SMILES): C[C@]12CC[C@@H]3c4cc(O)c(O)cc4CC[C@H]3[C@@H]1CC[C@@H]2O [2-HE, 2-hydroxyestradiol, reference compound]
- Intracellular GSH levels, % compared to control (A549 cells [1]; A549, 25 μM, 2 h): 69.0 ± 0.5%
- Int. GSH % con. (A549 cells [1]; [9]): <5 % con.
- Int. GSH % con. (HL-60 cells [2]; HL-60, 25 μM, 24 hours treatment): 120 % con.
- Int. GSH % con. (PC-3 cells [3]; PC-3, 25 μM): 228 % con.
- LDH rel. % con. (A549 cells [4]): 150 % con.
- LDH rel. % con. (HL-60 cells [5]; HL-60, 25 μM): 250 % con.
- LDH rel. % con. (PC-3 cells [6]): 113 % con.

Structure (SMILES): COc1ccc([C@@H]2Sc3ccccc3N(CCN(C)C)C(=O)[C@@H]2OC(C)=O)cc1 [Diltiazem, reference compound]
- activation at 100 µM (epithelial cells; 100 μM): 119%

Structure (SMILES): Oc1cc(O)c2c(c1)O[C@H](c1ccc(O)c(O)c1)[C@H](O)C2 [Epicatechin, (−)-epicatechin]
- activity at 75 µM (A549 cells [1]; [7]): 47%
- activity at 75 µM (HL-60 cells [2]; [10]): 90%
- activity at 50 µM (PC-3 cells [3]; PC-3, 50 μM): 115%
- LDH release, % of control at 75 µM (A549 cells [4]): 104%
- LDH release, % of control at 50 µM (HL-60 cells [5]; HL-60, 50 μM): 76%
- LDH release, % of control at 50 µM (PC-3 cells [6]): 88%

Structure (SMILES): O=c1c(O)c(-c2cc(O)c(O)c(O)c2)oc2cc(O)cc(O)c12 [Myricetin]
- Int. GSH % con. (A549 cells [1]; A549, 75 μM, 24 hours treatment): 55 % con.
- Int. GSH % con. (HL-60 cells [2]; [11]): 27 % con.
- Int. GSH % con. (PC-3 cells [3]; PC-3, 50 μM): 111 % con.
- LDH rel. % con. (A549 cells [4]): 206 % con.
- LDH rel. % con. (HL-60 cells [5]; HL-60, 50 μM): 139 % con.
- LDH rel. % con. (PC-3 cells [6]): 93 % con.

Structure (SMILES): COc1cc([C@@H]2c3cc4c(cc3[C@@H](O[C@@H]3O[C@@H]5CO[C@@H](C)O[C@H]5[C@H](O)[C@H]3O)[C@H]3COC(=O)[C@H]23)OCO4)cc(OC)c1O [Etoposide, reference compound]
- activity at 50 µM (A549 cells [1]; [12]): 55%
- effect on intracellular GSH (words) (HL-60 cells [2]): relatively effective for depleting GSH
- activity at 25 µM (HL-60 cells [2]; [8]): 7%
- activity at 25 µM (PC-3 cells [3]; PC-3, 25 μM): 83%
- LDH release, % of control at 50 µM (A549 cells [4]): 294%
- toxicity (HL-60 cells [5]; HL-60 cells): toxic
- LDH release, % of control at 25 µM (HL-60 cells [5]; HL-60, 25 μM): 290%
- LDH release, % of control at 50 µM (PC-3 cells [6]): 124%

Structure (SMILES): O=c1cc(-c2ccccc2)oc2ccccc12 [Flavone, flavone]
- activity at 25 µM (A549 cells [1]; A549, 25 μM, 2 h, read-out: Intracellular GSH levels, % compared to control): 89.7 ± 0.6%
- activity at 25 µM (A549 cells [1]; A549, 25 μM, 4 h, read-out: Intracellular GSH levels, % compared to control): 29.7 ± 4.8%
- activity at 25 µM (A549 cells [1]; A549, 25 μM, 24 hours treatment, read-out: Int. GSH % con.): < 5%
- activity at 50 µM (HL-60 cells [2]; Homo sapiens, HL-60, 50 μM, 24 hours treatment, read-out: Int. GSH % con.): 85%
- activity at 25 µM (PC-3 cells [3]; PC-3, 25 μM): 84%
- LDH release, % of control at 75 µM (A549 cells [4]): 164%
- LDH release, % of control at 50 µM (HL-60 cells [5]; HL-60, 50 μM): 116%
- LDH release, % of control at 50 µM (PC-3 cells [6]): 91%

Structure (SMILES): Oc1cc(O)c2cc(O)c(-c3ccc(O)c(O)c3)[o+]c2c1 [Cyanidin]
- activity at 75 µM (A549 cells [1]; [7]): 82%
- activity at 75 µM (HL-60 cells [2]; [10]): 95%
- activity at 50 µM (PC-3 cells [3]; PC-3, 50 μM): 120%
- LDH release, % of control at 75 µM (A549 cells [4]): 110%
- LDH release, % of control at 50 µM (HL-60 cells [5]; HL-60, 50 μM): 110%
- LDH release, % of control at 50 µM (PC-3 cells [6]): 93%

Structure (SMILES): O=c1c(-c2ccc(O)cc2)coc2cc(O)cc(O)c12 [Genistein]
- Intracellular GSH levels, % compared to control (A549 cells [1]; A549, 25 μM, 4 h): 34.8 ± 1.1%
- Int. GSH % con. (A549 cells [1]; [9]): 5 % con.
- Int. GSH % con. (HL-60 cells [2]; [11]): 57 % con.
- Int. GSH % con. (PC-3 cells [3]; PC-3, 25 μM): 81 % con.
- LDH rel. % con. (A549 cells [4]): 350 % con.
- LDH rel. % con. (HL-60 cells [5]; HL-60, 50 μM): 160 % con.
- LDH rel. % con. (PC-3 cells [6]): 131 % con.

Structure (SMILES): COc1ccc(CCN(C)CCCC(C#N)(c2ccc(OC)c(OC)c2)C(C)C)cc1OC (racemic) [Verapamil, (±)-verapamil, reference compound]
- activation at 10 µM (epithelial cells; 10 μM): 113%
- activity at 50 µM (A549 cells [1]; [12]): 14%
- activity at 25 µM (HL-60 cells [2]; [8]): 63%
- activity at 25 µM (PC-3 cells [3]; PC-3, 25 μM): 72%
- LDH release, % of control at 50 µM (A549 cells [4]): 130%
- LDH release, % of control at 25 µM (HL-60 cells [5]; HL-60, 25 μM): 125%
- LDH release, % of control at 50 µM (PC-3 cells [6]): 93%
